Values quoted from earlier work as cited in patent publication US9463189B2 (BPV Holdings, LLC, priority 2007, dated 2016).
Where a name gives a salt, the structure may show the parent alone.

Experiments:
PPAR = details: shown in US2006/0167012A1 and US2006/0205736A1; cited from earlier work
[1] = tested on: methionine- and choline-deficient diet model of NASH; details: Nagasawa T et al., Eur. J. Pharmacol. (2006); cited from earlier work
[2] = tested on: genetically obese rodent model; details: Gary-Bobo, M. et al., Hepatology 2007; cited from earlier work

For `C[C@@H]1CN(c2ccc(OC(F)(F)F)cc2)C[C@H](C)N1S(=O)(=O)c1cccc2c1C[C@@H](C(=O)O)C2` [Compound 1, (S)-4-[cis-2,6-Dimethyl-4-(4-trifluoromethoxy-phenyl)-piperazine-1-sulfonyl]-indan-2-carboxylic acid tosylate], the PPAR modulator activity (PPAR) is listed as “PPAR modulators”.
For `Cc1cc(SCc2sc(-c3ccc(C(F)(F)F)cc3)nc2C)ccc1OCC(=O)O` [GW501516], the “fatty acid β-oxidation” value [1] is given as “increased”, the hepatic steatosis [1] is given as “improved hepatic steatosis” and the hepatic triglyceride deposition [1] is given as “decreased”. For the same compound, the inflammation [1] was “decreased”, the “inflammatory cytokines or chemokines” value [1] was “decreased” and the “number of activated hepatic stellate cells” value [1] was “decreased”.
For `Cc1c(C(=O)NN2CCCCC2)nn(-c2ccc(Cl)cc2Cl)c1-c1ccc(Cl)cc1` [rimonabant], the “outcome in genetically obese rodent model” value [2] is given as “positive outcome”.
